Source: US9695155B2, “Herbicidal substituted pyrimidinyloxy benzene compounds” (E. I. DU PONT DE NEMOURS AND COMPANY, priority 2013, dated 2017)

Columns and labels:
[1] = tested on: pigweed; experiment: Test C postemergence; format: in vivo, Amaranthus retroflexus; conditions: for Plant response rating (0 to 100), Pigweed: postemergence; for Plant response rating, Pigweed: Postemergence, scale 0 to 100 (0 no effect, 100 complete control)
Summary of the method: (§1)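 Seeds were sown in loam–sand blend and sprayed preemergence, while plants at 1- to 4-leaf stage (2–18 cm) in peat-based medium received postemergence sprays; test chemicals were formulated in a non-phytotoxic solvent with surfactant. After 13–15 days in a greenhouse, injury was rated visually against controls, 0 (no effect) to 100 (complete control).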

[2] = tested on: barnyardgrass; experiment: Test B flooded paddy test; format: in vivo, Echinochloa crus-galli; conditions: Flood, 250 g ai/ha; 0 to 100 scale where 0 is no effect and 100 is complete control
Summary of the method: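 Plants at 2-leaf stage; pots flooded to 3 cm above soil and compound applied directly into paddy water, depth held throughout. After 13 to 15 days in greenhouse, visual rating versus controls on 0 (no effect) to 100 (complete control) scale.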

[3] = tested on: giant foxtail; experiment: Test A preemergence; format: in vivo, Setaria faberii
Summary of the method: (§2)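 Compounds in non-phytotoxic solvent with surfactant applied as soil spray preemergence, or postemergence to plants 2-10 cm at one- to two-leaf stage, in loam/sand. After approximately 10 days in greenhouse, injury rated visually versus untreated controls, 0 (no effect) to 100 (complete control).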

[4] = tested on: morningglory; experiment: Test A preemergence; format: in vivo, Ipomoea spp.
Summary of the method: as §2

[5] = tested on: pigweed; experiment: Test A postemergence; format: in vivo, Amaranthus retroflexus
Summary of the method: as §2

[6] = tested on: corn; experiment: Test A preemergence; format: in vivo, Zea mays
Summary of the method: as §2

[7] = tested on: wheat; experiment: Test A postemergence; format: in vivo, Triticum aestivum
Summary of the method: as §2

[8] = tested on: large (Lg) crabgrass; experiment: Test A postemergence; format: in vivo, Digitaria sanguinalis
Summary of the method: as §2

[9] = tested on: wheat, winter; experiment: Test C preemergence; format: in vivo, Triticum aestivum; conditions: for Wheat plant response rating: preemergence, scale 0 (no effect) to 100 (complete control)
Summary of the method: as §1

[10] = tested on: morningglory; experiment: Test C postemergence; format: in vivo, Ipomoea coccinea; conditions: for Plant response rating (0 to 100), Morningglory: postemergence; for Plant response rating, Morningglory: Postemergence, scale 0 to 100 (0 no effect, 100 complete control)
Summary of the method: as §1

[11] = tested on: lambsquarters; experiment: Test C preemergence; format: in vivo, Chenopodium album; conditions: for Lambsquarters plant response rating: preemergence, scale 0 (no effect) to 100 (complete control)
Summary of the method: as §1

[12] = tested on: Italian ryegrass; experiment: Test C postemergence; format: in vivo, Lolium multiflorum; conditions: for Plant response rating (0 to 100), Ryegrass, Italian: postemergence; for Plant response rating, Ryegrass, Italian: Postemergence, scale 0 to 100 (0 no effect, 100 complete control)
Summary of the method: as §1

[13] = tested on: velvetleaf; experiment: Test A preemergence; format: in vivo, Abutilon theophrasti
Summary of the method: as §2

[14] = tested on: velvetleaf; experiment: Test A postemergence; format: in vivo, Abutilon theophrasti
Summary of the method: as §2

[15] = tested on: kochia; experiment: Test C postemergence; format: in vivo, Kochia scoparia; conditions: for Plant response rating (0 to 100), Kochia: postemergence; for Plant response rating, Kochia: Postemergence, scale 0 to 100 (0 no effect, 100 complete control)
Summary of the method: as §1

[16] = 125 g ai/ha, 0 to 100 scale where 0 is no effect and 100 is complete control
[17] = 500 g ai/ha, 0 to 100 scale, 0 no effect, 100 complete control, approx. 10 days
[18] = 500 g ai/ha, 0 to 100 scale, 0 no effect, 100 complete control
[19] = Preemergence, 31 g ai/ha, scale 0 to 100, 0 no effect, 100 complete control

Structure (SMILES): FC(F)(F)c1cnn(-c2ccccc2Oc2ncc(Cl)cn2)c1 [Compound 16]
- Plant response rating (0 to 100), Pigweed ([1]; 125 g ai/ha): 100
- Plant response rating (0 to 100), Pigweed ([1]; 250 g ai/ha): 100
- Plant response rating, Pigweed ([1]; 31 g ai/ha, 13 to 15 days): 80
- Plant response rating, Pigweed ([1]; 62 g ai/ha): 98
- Plant response rating, Barnyardgrass [2]: 40
- Foxtail, Giant plant response rating [3, 16]: 100
- Foxtail, Giant plant response rating [3, 17]: 100
- Morningglory plant response rating [4, 16]: 30
- Morningglory plant response rating [4, 17]: 90
- Plant response rating, Pigweed [5, 16]: 100
- Plant response rating, Pigweed [5, 18]: 100
- Corn plant response rating [6, 16]: 10
- Corn plant response rating [6, 17]: 30
- Plant response rating, Wheat [7, 16]: 70
- Plant response rating, Wheat [7, 18]: 80
- Plant response rating, Crabgrass, Large [8, 16]: 80
- Plant response rating, Crabgrass, Large [8, 18]: 100
- Wheat plant response rating ([9]; 62 g ai/ha): 0
- Wheat plant response rating ([9]; 125 g ai/ha): 35
- Wheat plant response rating ([9]; 250 g ai/ha): 60
- Plant response rating, Wheat [9, 19]: 0
- Plant response rating (0 to 100), Morningglory ([10]; 125 g ai/ha): 80
- Plant response rating (0 to 100), Morningglory ([10]; 250 g ai/ha): 85
- Plant response rating, Morningglory ([10]; 31 g ai/ha, 13 to 15 days): 65
- Plant response rating, Morningglory ([10]; 62 g ai/ha): 80
- Lambsquarters plant response rating ([11]; 62 g ai/ha): 80
- Lambsquarters plant response rating ([11]; 125 g ai/ha): 80
- Lambsquarters plant response rating ([11]; 250 g ai/ha): 90
- Plant response rating, Lambsquarters [11, 19]: 20
- Plant response rating (0 to 100), Ryegrass, Italian ([12]; 125 g ai/ha): 20
- Plant response rating (0 to 100), Ryegrass, Italian ([12]; 250 g ai/ha): 20
- Plant response rating, Ryegrass, Italian ([12]; 31 g ai/ha, 13 to 15 days): 10
- Plant response rating, Ryegrass, Italian ([12]; 62 g ai/ha): 15
- Velvetleaf plant response rating [13, 16]: 100
- Velvetleaf plant response rating [13, 17]: 100
- Plant response rating, Velvetleaf [14, 16]: 100
- Plant response rating, Velvetleaf [14, 18]: 100
- Plant response rating (0 to 100), Kochia ([15]; 125 g ai/ha): 98
- Plant response rating (0 to 100), Kochia ([15]; 250 g ai/ha): 100
- Plant response rating, Kochia ([15]; 31 g ai/ha, 13 to 15 days): 35
- Plant response rating, Kochia ([15]; 62 g ai/ha): 80
